This note sets out measurements from PubChem BioAssay AID651618 (Broad Institute, 2012).

Activity calls are given as the source filed them. No rule for the calls is given here.

Test system in the first assay: not listed separately
As to the kind of experiment: replicating M. tuberculosis growth inhibition, dose response, counter-screen, dry powder, IC90 (AID 651618). Conditions: M. tuberculosis replicating log phase, growth inhibition.
For `FC(F)(F)Oc1ccccc1CSc1nnc(-c2ccccc2)o1`, the outcome was inactive.

With `CS(=O)(=O)c1cccc(-c2nnc(SCc3ccccc3)o2)c1`, the result was inactive.

Take `FC(F)(F)c1ccc(CSc2nnc(-c3ccccc3)o2)cc1`: the outcome was inactive.

For `c1ccc(CSc2nnc(-c3ccc(-c4ccccc4)cc3)o2)cc1`, the outcome was inactive.

Turning to `c1ccc(CNc2nnc(-c3ccccc3)o2)cc1`, the result was inactive.

In the case of `FC(F)(F)c1ccccc1CSc1nnc(-c2ccccc2)o1`, the result was inactive.

On to `N#Cc1cccc(CSc2nnc(-c3ccccc3)o2)c1`, for which the outcome was inactive.

As for `Cc1ccccc1-c1nnc(SCc2ccccc2)o1`, the result was inactive.

Regarding `COc1ccc(-c2nnc(SCc3ccccc3)o2)cc1`, the result was inactive.

On to `FC(F)(F)Oc1ccccc1-c1nnc(SCc2ccccc2)o1`, for which the result was inactive.

As for `CS(=O)(=O)c1cccc(CSc2nnc(-c3ccccc3)o2)c1`, the result was inactive.

Regarding `Fc1ccc(CSc2nnc(-c3ccccc3)o2)cc1`, the result was inactive.

Turning to `Fc1ccc(-c2nnc(SCc3ccccc3)o2)cc1`, the result was inactive.

For `CS(=O)(=O)c1ccccc1CSc1nnc(-c2ccccc2)o1`, the result was inactive.

For the compound `CN(C)CCSc1nnc(-c2ccccc2)o1`, the outcome was inactive.

`c1ccc(-c2nnc(SC(c3ccccc3)c3ccccc3)o2)cc1`: the result was inactive.

As to `COc1ccc(CSc2nnc(-c3ccccc3)o2)cc1`, the outcome was inactive.

As for `FC(F)(F)c1ccc(-c2nnc(SCc3ccccc3)o2)cc1`, the result was inactive.

Turning to `c1ccc(CSc2nnc(-c3ccco3)o2)cc1`, the outcome was inactive.

On to `c1ccc(-c2nnc(SCc3cscn3)o2)cc1`, for which the result was inactive.

For the compound `N#Cc1ccc(CSc2nnc(-c3ccccc3)o2)cc1`, the outcome was inactive.

For the compound `Cc1ccc(CSc2nnc(-c3ccccc3)o2)cc1`, the outcome was inactive.

On to `c1ccc(-c2nnc(SCCN3CCOCC3)o2)cc1`, for which the result was inactive.

For the compound `c1ccc(CSc2nnc(-c3ccncc3)o2)cc1`, the result was inactive.

On to `CC1(O)CN(CCSc2nnc(-c3ccccc3)o2)C1`, for which the outcome was inactive.

Take `Fc1ccccc1-c1nnc(SCc2ccccc2)o1`: the outcome was inactive.

For the compound `Clc1cccc(-c2nnc(SCc3ccccc3)o2)c1`, the outcome was inactive.

Consider `CS(=O)(=O)c1ccc(CSc2nnc(-c3ccccc3)o2)cc1`, for which the result was inactive.

Regarding `c1ccc(-c2nnc(SCc3ncco3)o2)cc1`, the result was inactive.

As for `FC(F)(F)c1cccc(-c2nnc(SCc3ccccc3)o2)c1`, the outcome was inactive.

Take `CS(=O)(=O)c1ccc(-c2nnc(SCc3ccccc3)o2)cc1`: the outcome was inactive.

Take `O=C(Cc1ccccc1)C(C(=O)c1nnc(-c2ccccc2)o1)c1ccccc1` (stereo unspecified): the result was inactive.

As to `O=C(Cc1ccccc1)c1nnc(-c2ccccc2)o1`, the outcome was inactive.

As to `Clc1ccccc1CSc1nnc(-c2ccccc2)o1`, the outcome was inactive.

On to `Clc1ccc(-c2nnc(SCc3ccccc3)o2)cc1`, for which the result was inactive.

Turning to `c1ccc(CSc2ncc(-c3ccccc3)o2)cc1`, the outcome was inactive.

For `c1ccc(CNCCSc2nnc(-c3ccccc3)o2)cc1`, the result was inactive.

Take `Fc1cccc(-c2nnc(SCc3ccccc3)o2)c1`: the outcome was inactive.

Take `c1ccc(CSc2nnc(-c3cc4ccccc4o3)o2)cc1`: the outcome was inactive.

Take `c1ccc(CSc2nnc(-c3ccccc3)s2)cc1`: the result was inactive.

In the case of `FC(F)(F)c1ccccc1-c1nnc(SCc2ccccc2)o1`, the outcome was inactive.

`Cc1cccc(-c2nnc(SCc3ccccc3)o2)c1`: the outcome was inactive.

Consider `FC(F)(F)Oc1cccc(CSc2nnc(-c3ccccc3)o2)c1`, for which the outcome was inactive.

Regarding `FC(F)(F)CNCCSc1nnc(-c2ccccc2)o1`, the outcome was inactive.

Turning to `FC1(F)CN(CCSc2nnc(-c3ccccc3)o2)C1`, the result was inactive.

With `FC(F)(F)Oc1ccc(CSc2nnc(-c3ccccc3)o2)cc1`, the outcome was inactive.

Turning to `COc1ccccc1CSc1nnc(-c2ccccc2)o1`, the outcome was inactive.

On to `CS(=O)(=O)c1ccccc1-c1nnc(SCc2ccccc2)o1`, for which the outcome was inactive.

Consider `Clc1ccc(CSc2nnc(-c3ccccc3)o2)cc1`, for which the result was inactive.

As for `c1ccc(-c2nnc(SCCN3CCCC3)o2)cc1`, the result was inactive.

Turning to `N#Cc1ccccc1CSc1nnc(-c2ccccc2)o1`, the outcome was inactive.

As to `Brc1ccc(CSc2nnc(-c3ccccc3)o2)cc1`, the outcome was inactive.

`c1ccc(CSc2nnc(-c3ccccn3)o2)cc1`: the outcome was inactive.

For the compound `COc1ccc(-c2nnc(SCc3ccc(Cl)cc3)o2)cc1`, the result was inactive.

As to `Clc1ccccc1-c1nnc(SCc2ccccc2)o1`, the result was inactive.

With `c1ccc(CSc2nnc(-c3cscn3)o2)cc1`, the outcome was inactive.

Take `N#Cc1ccc(-c2nnc(SCc3ccccc3)o2)cc1`: the outcome was inactive.

In the case of `FC(F)(F)Oc1ccc(-c2nnc(SCc3ccccc3)o2)cc1`, the outcome was inactive.

In the case of `Cc1ccccc1CSc1nnc(-c2ccccc2)o1`, the outcome was inactive.

In the case of `Cc1nnc(SCc2ccccc2)o1`, the result was inactive.

For the compound `c1ccc(CCc2nnc(-c3ccccc3)o2)cc1`, the result was inactive.

Regarding `c1ccc(CSc2nnc(-c3cnco3)o2)cc1`, the result was inactive.

As for `c1ccc(-c2ccc(CSc3nnc(-c4ccccc4)o3)cc2)cc1`, the outcome was inactive.

With `c1ccc(CSc2nnc(Cc3ccccc3)o2)cc1`, the result was inactive.

Regarding `CN(Cc1ccccc1)c1nnc(-c2ccccc2)o1`, the result was inactive.

For `Clc1cccc(CSc2nnc(-c3ccccc3)o2)c1`, the result was inactive.

With `N#Cc1cccc(-c2nnc(SCc3ccccc3)o2)c1`, the outcome was inactive.

The next assay deals with M. tuberculosis replicating log phase, growth inhibition. The assay is described as above.
Details: not given
Turning to `FC(F)(F)c1cccc(CSc2nnc(-c3ccccc3)o2)c1`, the IC90 is 250 µM.

As to `Fc1ccccc1CSc1nnc(-c2ccccc2)o1`, the IC90 was 250 µM.

Take `Fc1cccc(CSc2nnc(-c3ccccc3)o2)c1`: the 90% effect concentration (IC90) is 250 µM.

For `COc1cccc(CSc2nnc(-c3ccccc3)o2)c1`, the IC90 was 250 µM.

As to `c1ccc(CCc2nnc(SCc3ccccc3)o2)cc1`, the concentration for an effect of 90% (IC90) was 250 µM.

Take `c1ccc(CSc2nnc(C3CCCCC3)o2)cc1`: the 90% effect concentration (IC90) is 250 µM.

Turning to `Cc1cccc(CSc2nnc(-c3ccccc3)o2)c1`, the IC90 was 250 µM.

Take `c1ccc(CSc2nnc(-c3cccs3)o2)cc1`: the 90% effect concentration (IC90) is 250 µM.

As for `c1ccc(-c2nnc(SCCN3CCN(c4ccccc4)CC3)o2)cc1`, the IC90 is 125 µM.

For `COc1ccccc1-c1nnc(SCc2ccccc2)o1`, the IC90 is 250 µM.

`CC(C)c1nnc(SCc2ccccc2)o1`: the IC90 is 250 µM.

Regarding `COCCOCCSc1nnc(-c2ccccc2)o1`, the 90% effect concentration (IC90) was 250 µM.

As to `c1ccc(CSc2nnc(C3CCCC3)o2)cc1`, the concentration for an effect of 90% (IC90) is 250 µM.

`Cc1ccc(-c2nnc(SCc3ccccc3)o2)cc1`: the IC90 is 125 µM.

With `FC(F)(F)Oc1cccc(-c2nnc(SCc3ccccc3)o2)c1`, the IC90 is 250 µM.

Regarding `c1ccc(CSc2nnc(-c3ccccc3)o2)cc1`, the 90% effect concentration (IC90) is 125 µM.

For the compound `COc1cccc(-c2nnc(SCc3ccccc3)o2)c1`, the 90% effect concentration (IC90) was 250 µM.

Regarding `FC1(F)CCN(CCSc2nnc(-c3ccccc3)o2)CC1`, the IC90 is 250 µM.

Take `c1ccc(CSc2nnc(-c3cccnc3)o2)cc1`: the IC90 is 250 µM.
